Experiment [1] deals with T1, SARS-CoV-2 PLpro (nsp3 1564–1878) (Severe acute respiratory syndrome coronavirus 2, UniProt P0DTD1). As to the kind of experiment: biochemical. More on the design: FRET-quenched peptide (Pro3) cleavage by PLpro, 10 min pre-incubation, slope over 20 min, normalised to no-compound control. The conditions noted are these: low concentration screen, read-out: % of control remaining.

The target in experiment [2] is T1, SARS-CoV-2 PLpro (nsp3 1564–1878). Nature of the experiment: biochemical. The settings on record: high concentration screen, read-out: % of control remaining. More on the design: FRET-quenched peptide (Pro3) cleavage by PLpro, 10 min pre-incubation, slope over 20 min, normalised to no-compound control.

Where a name gives a salt, the structure may show the parent alone. Read-outs that look alike come from different tables or passages of the source.

Consider `CNC(=O)[C@H]1O[C@@H](n2cnc3c(NCc4cccc(I)c4)nc(Cl)nc32)[C@H](O)[C@@H]1O` [2-Cl-IB-MECA], for which the remaining activity at 1.25 µM in experiment [1] (Well no.=6316) worked out at 95%. Moreover, the remaining activity at 3.75 µM in experiment [2] (Well no.=6316) is 90.2%.

Turning to `NCC(O)C1CCCCCCC1` (stereo not drawn) [2-Cyclooctyl-2-hydroxyethylamine hydrochloride], the remaining activity at 1.25 µM in experiment [1] (Well no.=485) worked out at 106%. In experiment [2] (Well no.=485), the remaining activity at 3.75 µM came to 105%.

`O=CC[C@@H](O)[C@H](O)[C@H](O)CO` [2-Deoxy-D-glucose]: the remaining activity at 1.25 µM in experiment [1] (Well no.=8302) was 100%. Besides, the remaining activity at 3.75 µM in experiment [2] (Well no.=8302) is 101%.

In the case of `CCCCCCCCCCCCCCC(F)C(=O)O` (stereo not drawn) [2-Fluoropalmitic acid], the remaining activity at 1.25 µM in experiment [1] (Well no.=4355) is 99.2%. For the same molecule, in experiment [2] (Well no.=4355), the remaining activity at 3.75 µM was 97%.

Take `NC(N)=NCC(=O)O` [2-Guanidinoacetic acid]: the remaining activity at 1.25 µM in experiment [1] (Well no.=6437) was 103%. The remaining activity at 3.75 µM in experiment [2] (Well no.=6437) was determined as 105%.

Take `CCC(C)(O)C(=O)O` (stereo not drawn) [2-Hydroxy-2-methylbutanoic acid]: the remaining activity at 1.25 µM in experiment [1] (Well no.=6357) was found to be 96.5%. In addition, the remaining activity at 3.75 µM in experiment [2] (Well no.=6357) came to 93.4%.

For `CC(C)C(O)C(=O)O` (stereo not drawn) [2-Hydroxy-3-methylbutanoic acid], the remaining activity at 1.25 µM in experiment [1] (Well no.=7503) came to 101%. In addition, in experiment [2] (Well no.=7503), the remaining activity at 3.75 µM turned out to be 98.9%.

As to `CCCCCCCCCCCCC(O)C(=O)O` (stereo not drawn) [2-Hydroxymyristic acid], the remaining activity at 1.25 µM in experiment [1] (Well no.=4353) is 103%. Moreover, the remaining activity at 3.75 µM in experiment [2] (Well no.=4353) came to 102%.

In the case of `O=C(O)Cc1ccccc1O` [2-Hydroxyphenylacetic acid], the remaining activity at 1.25 µM in experiment [1] (Well no.=6307) is 104%. Moreover, the remaining activity at 3.75 µM in experiment [2] (Well no.=6307) came out at 107%.

As for `NCC(O)(CS(=O)(=O)O)c1ccc(Cl)cc1` (stereo not drawn) [2-Hydroxysaclofen], the remaining activity at 1.25 µM in experiment [1] (Well no.=355) is 97.9%. The remaining activity at 3.75 µM in experiment [2] (Well no.=355) was 95.6%.

Consider `COc1ccc2[nH]c(I)c(CCNC(C)=O)c2c1` [2-Iodomelatonin], for which the remaining activity at 1.25 µM in experiment [1] (Well no.=622) amounted to 99.9%. Besides, the remaining activity at 3.75 µM in experiment [2] (Well no.=622) was 99.7%.

For `O=C(O)CCC(=O)C(=O)O` [2-Ketoglutaric acid], in experiment [1] (Well no.=7061), the remaining activity at 1.25 µM is 103%. Also, the remaining activity at 3.75 µM in experiment [2] (Well no.=7061) came out at 98.4%.

Take `COc1ccccc1C(=O)O` [2-Methoxybenzoic acid]: the remaining activity at 1.25 µM in experiment [1] (Well no.=6583) is 103%. The remaining activity at 3.75 µM in experiment [2] (Well no.=6583) turned out to be 101%.

As for `COc1cc2c(cc1O)CC[C@@H]1[C@@H]2CC[C@]2(C)[C@@H](O)CC[C@@H]12` [2-Methoxyestradiol], the remaining activity at 1.25 µM came out at 105% in experiment [1] (Well no.=836) and 95.9% in experiment [1] (Well no.=6292). In addition, the remaining activity at 3.75 µM was found to be 102% in experiment [2] (Well no.=836) and 93.3% in experiment [2] (Well no.=6292).

On to `Cc1[nH]c2ccc(O)cc2c1CCN` [2-Methyl-5-hydroxytryptamine maleate], for which the remaining activity at 1.25 µM in experiment [1] (Well no.=847) stood at 102%. Also, in experiment [2] (Well no.=847), the remaining activity at 3.75 µM was determined as 102%.

With `CC(CCC(=O)O)C(=O)O` (stereo not drawn) [2-Methylpentanedioic acid], in experiment [1] (Well no.=6733), the remaining activity at 1.25 µM was 99.7%. The remaining activity at 3.75 µM in experiment [2] (Well no.=6733) was determined as 105%.

`CC(CC(=O)O)C(=O)O` (stereo not drawn) [2-Methylsuccinic acid]: in experiment [1] (Well no.=6635), the remaining activity at 1.25 µM was determined as 100%. The remaining activity at 3.75 µM in experiment [2] (Well no.=6635) was 98.3%.

With `Oc1ccc2ccccc2c1` [2-Naphthol], the remaining activity at 1.25 µM in experiment [1] (Well no.=7155) is 103%. Also, the remaining activity at 3.75 µM in experiment [2] (Well no.=7155) turned out to be 99.5%.

`O=C(O)C(=O)Cc1ccccc1` [2-Oxo-3-phenylpropanoic acid]: the remaining activity at 1.25 µM in experiment [1] (Well no.=6877) was determined as 109%. In experiment [2] (Well no.=6877), the remaining activity at 3.75 µM is 103%.

Regarding `CCC(=O)C(=O)O` [2-Oxobutanoic acid], in experiment [1] (Well no.=6293), the remaining activity at 1.25 µM was 106%. The remaining activity at 3.75 µM in experiment [2] (Well no.=6293) was determined as 105%.

Turning to `Nc1nc(Nc2ccccc2)nc2c1ncn2[C@@H]1O[C@H](CO)[C@@H](O)[C@H]1O` [2-Phenylaminoadenosine], the remaining activity at 1.25 µM in experiment [1] (Well no.=1213) is 102%. In addition, the remaining activity at 3.75 µM in experiment [2] (Well no.=1213) stood at 106%.

With `CC(C(=O)O)c1ccccc1` (stereo not drawn) [2-Phenylpropionic acid], the remaining activity at 1.25 µM in experiment [1] (Well no.=6837) came out at 94.4%. Moreover, the remaining activity at 3.75 µM in experiment [2] (Well no.=6837) is 95.3%.

Regarding `O=c1cc[nH]c(=S)[nH]1` [2-Thiouracil], the remaining activity at 1.25 µM in experiment [1] (Well no.=5325) turned out to be 90.5%. Besides, in experiment [2] (Well no.=5325), the remaining activity at 3.75 µM is 90.8%.

Regarding `CN(C)c1ccccc1CN1CCCN(Cc2ccccc2N(C)C)C1c1ccncc1` [2-[(3-[2-(dimethylamino)benzyl]-2-(4-pyridinyl)tetrahydro-1(2H)-pyrimidinyl)methyl]-N,N-dimethylaniline], the remaining activity at 1.25 µM in experiment [1] (Well no.=5454) stood at 96.1%. Also, in experiment [2] (Well no.=5454), the remaining activity at 3.75 µM was 100%.

As to `Cc1nc(C(=O)N2CCC[C@H]2Cc2nnc(-c3ccccc3)o2)c(-c2ccccc2F)s1` [2-[((2S)-1-{[5-(2-fluorophenyl)-2-methyl-1,3-thiazol-4-yl]carbonyl}-2-pyrrolidinyl)methyl]-5-phenyl-1,3,4-oxadiazole], the remaining activity at 1.25 µM in experiment [1] (Well no.=5406) is 90.5%. In addition, in experiment [2] (Well no.=5406), the remaining activity at 3.75 µM was 102%.

Take `CCCCCCCCc1ccc(CCC(N)(CO)CO)cc1` [2-amino-2-[2-(4-octylphenyl)ethyl]-1,3-propanediol hydrochloride]: the remaining activity at 1.25 µM in experiment [1] (Well no.=6045) was found to be 93.4%. For the same molecule, the remaining activity at 3.75 µM in experiment [2] (Well no.=6045) was 95.1%.

As to `COc1cc(Br)c(S(=O)(=O)Nc2ccc(Cl)c(O[C@@H]3CCN(C)C3)c2)cc1OC` [2-bromo-N-(4-chloro-3-{[(3R)-1-methyl-3-pyrrolidinyl]oxy}phenyl)-4,5-dimethoxybenzenesulfonamide], in experiment [1] (Well no.=5501), the remaining activity at 1.25 µM was 99.8%. The remaining activity at 3.75 µM in experiment [2] (Well no.=5501) came out at 105%.

As to `CCCCCCCCCCCCCCC(Br)C(=O)O` (stereo not drawn) [2-bromohexadecanoic acid], the remaining activity at 1.25 µM in experiment [1] (Well no.=5893) amounted to 106%. Besides, the remaining activity at 3.75 µM in experiment [2] (Well no.=5893) turned out to be 106%.

`CCCCC1=NC2(CCCC2)C(=O)N1Cc1ccc(-c2ccccc2-c2nnn[nH]2)cc1` [2-butyl-3-{[2'-(1H-tetraazol-5-yl)[1,1'-biphenyl]-4-yl]methyl}-1,3-diazaspiro[4.4]non-1-en-4-one]: the remaining activity at 1.25 µM in experiment [1] (Well no.=5468) turned out to be 98%. Moreover, the remaining activity at 3.75 µM in experiment [2] (Well no.=5468) amounted to 104%.

Take `O=C(O)c1ccc(-c2c[nH]c3ncc(-c4ccccc4)cc23)cc1C1CCCC1` [2-cyclopentyl-4-(5-phenyl-1H-pyrrolo[2,3-b]pyridin-3-yl)benzoic acid]: the remaining activity at 1.25 µM in experiment [1] (Well no.=5864) was determined as 93%. Further, the remaining activity at 3.75 µM in experiment [2] (Well no.=5864) came to 94.4%.

In the case of `C[N+](C)(C)CCO` [2-hydroxy-N,N,N-trimethylethanaminium chloride], in experiment [1] (Well no.=5483), the remaining activity at 1.25 µM is 98.3%. The remaining activity at 3.75 µM in experiment [2] (Well no.=5483) was 97.8%.

As for `CC(N)(COP(=O)(O)O)C(=O)O` (stereo not drawn) [2-methyl-O-phosphonoserine], the remaining activity at 1.25 µM in experiment [1] (Well no.=5427) was found to be 96.2%. Further, the remaining activity at 3.75 µM in experiment [2] (Well no.=5427) was 101%.

(Values after publication PMC8286840, “Identifying SARS-CoV-2 antiviral compounds by screening for small molecule inhibitors of Nsp3 papain-like protease” (Biochemical Journal, 2021).)
